# Assay results reported in ChEMBL document CHEMBL5528058 (J Med Chem, 2024).
# Activity calls are given as the source filed them. The rule behind the calls is not given here.
# What was measured:
# [1] = target: Programmed cell death protein 1/Programmed cell death 1 ligand 1 (Homo sapiens, UniProt Q9NZQ7)
# Description: Inhibition of human PD-1/PD-L1 interaction by HTRF analysis
# [2] = AUC (0 to infinity) in ICR mouse at 1 mg/kg, iv measured upto 24 hrs by LCMS analysis; format: ADME, organism-based; settings: in vivo
# [3] = AUC (0 to infinity) in ICR mouse at 10 mg/kg, IG measured upto 24 hrs by LCMS analysis; format: ADME, organism-based; settings: in vivo, po
# [4] = MRT (0 to t) in ICR mouse at 1 mg/kg, iv measured upto 24 hrs by LCMS analysis; format: ADME, organism-based; settings: in vivo
# [5] = target: Programmed cell death 1 ligand 1 (Mus musculus, UniProt Q9EP73); experiment: Binding affinity to his-tagged mouse PD-L1 expressed in HEK293 cells assessed as dissociation constant by SPR analysis
# MDA-MB-231 [6] = experiment: Antiproliferative activity against human MDA-MB-231 cells as cell killing incubated for 6 days by CCK-8 assay; settings: MDA-MB-231, 144 h
# 4T1 [7] = experiment: Antiproliferative activity against mouse 4T1 cells as cell killing incubated for 6 days by CCK-8 assay; settings: 4T1, 144 h
# Jurkat = experiment: Antiproliferative activity against human Jurkat cells as cell killing incubated for 6 days by CCK-8 assay; settings: 144 h
# MDA-MB-231 [8] = experiment: Induction of cell death in human MDA-MB-231 cells incubated for 6 days by CCK-8 assay; format: functional, cell-based; settings: time 6.0 day
# PBMC = experiment: Induction of cell death in human PBMC cells incubated for 6 days by CCK-8 assay; format: functional, cell-based; settings: time 6.0 day
# MDA-MB-231 [9] = experiment: Antitumor immunity activity against human MDA-MB-231 cells co-cultured with human PBMC assessed as cell killing incubated for 12 hrs; format: functional, cell-based
# [10] = Half life in ICR mouse at 1 mg/kg, iv measured upto 24 hrs by LCMS analysis; format: ADME, organism-based; settings: in vivo
# [11] = Half life in ICR mouse at 10 mg/kg, IG measured upto 24 hrs by LCMS analysis; format: ADME, organism-based; settings: in vivo, po
# [12] = Tmax in ICR mouse at 10 mg/kg, IG measured upto 24 hrs by LCMS analysis; format: ADME, organism-based; settings: in vivo, po
# [13] = Cmax in ICR mouse at 10 mg/kg, IG measured upto 24 hrs by LCMS analysis; format: ADME, organism-based; settings: in vivo, po
# [14] = AUC (0 to t) in ICR mouse at 1 mg/kg, iv measured upto 24 hrs by LCMS analysis; format: ADME, organism-based; settings: in vivo
# [15] = AUC (0 to t) in ICR mouse at 10 mg/kg, IG measured upto 24 hrs by LCMS analysis; format: ADME, organism-based; settings: in vivo, po
# [16] = MRT (0 to t) in ICR mouse at 10 mg/kg, IG measured upto 24 hrs by LCMS analysis; format: ADME, organism-based; settings: in vivo, po
# [17] = MRT (0 to infinity) in ICR mouse at 1 mg/kg, iv measured upto 24 hrs by LCMS analysis; format: ADME, organism-based; settings: in vivo
# [18] = MRT (0 to infinity) in ICR mouse at 10 mg/kg, IG measured upto 24 hrs by LCMS analysis; format: ADME, organism-based; settings: in vivo, po
# [19] = Clearance in ICR mouse at 1 mg/kg, iv measured upto 24 hrs by LCMS analysis; format: ADME, organism-based; settings: in vivo
# [20] = Oral bioavailability in ICR mouse at 1 mg/kg measured upto 24 hrs by LCMS analysis; format: ADME, organism-based; settings: in vivo
# [21] = Acute toxicity in ICR mouse at 250 to 500 mg/kg, IG measured for 7 days; format: organism-based; settings: in vivo, po, 168 h, dose 250-500 mg/kg, time 7 day
# 4T1 [22] = experiment: Antitumor activity against mouse 4T1 cells implanted in BALB/c mouse assessed as tumor growth inhibition at 5 mg/kg, IG administered twice a day for 14 days; settings: 4T1, po, 336 h, read-out: TGI
# 4T1 [23] = experiment: Antitumor activity against mouse 4T1 cells implanted in BALB/c mouse assessed as tumor growth inhibition at 10 mg/kg, IG administered twice a day for 14 days; settings: 4T1, po, 336 h, read-out: TGI
# [24] = Toxicity in BALB/c mouse implanted with mouse 4T1 cells assessed as body weight loss at 5 to 10 mg/kg, IG administered twice a day for 14 days; format: organism-based; settings: in vivo, po, 336 h, dose 5-10 mg/kg, time 14 day
# [25] = Toxicity in BALB/c mouse implanted with mouse 4T1 cells assessed as side effect at 5 to 10 mg/kg, IG administered twice a day for 14 days; format: organism-based; settings: in vivo, po, 336 h, dose 5-10 mg/kg, time 14 day
# [26] = Toxicity in BALB/c mouse implanted with mouse 4T1 cells assessed as morphological changes in heart at 5 to 10 mg/kg, IG administered twice a day for 14 days by H and E staining based analysis; format: organism-based; settings: in vivo, po, 336 h, dose 5-10 mg/kg, time 14 day
# [27] = Toxicity in BALB/c mouse implanted with mouse 4T1 cells assessed as morphological changes in liver at 5 to 10 mg/kg, IG administered twice a day for 14 days by H and E staining based analysis; format: organism-based; settings: in vivo, po, 336 h, dose 5-10 mg/kg, time 14 day
# [28] = Toxicity in BALB/c mouse implanted with mouse 4T1 cells assessed as morphological changes in spleen at 5 to 10 mg/kg, IG administered twice a day for 14 days by H and E staining based analysis; format: organism-based; settings: in vivo, po, 336 h, dose 5-10 mg/kg, time 14 day
# [29] = Toxicity in BALB/c mouse implanted with mouse 4T1 cells assessed as morphological changes in lung at 5 to 10 mg/kg, IG administered twice a day for 14 days by H and E staining based analysis; format: organism-based; settings: in vivo, po, 336 h, dose 5-10 mg/kg, time 14 day
# [30] = Toxicity in BALB/c mouse implanted with mouse 4T1 cells assessed as morphological changes in kidney at 5 to 10 mg/kg, IG administered twice a day for 14 days by H and E staining based analysis; format: organism-based; settings: in vivo, po, 336 h, dose 5-10 mg/kg, time 14 day
# [31] = Toxicity in BALB/c mouse implanted with mouse 4T1 cells assessed as morphological changes in tumor at 5 to 10 mg/kg, IG administered twice a day for 14 days by H and E staining based analysis; format: organism-based; settings: in vivo, po, 336 h, dose 5-10 mg/kg, time 14 day
# 4T1 [32] = experiment: Antitumor activity against mouse 4T1 cells implanted in BALB/c mouse assessed as reduction in ki-67 expression at 10 mg/kg, IG administered twice a day for 14 days by immunohistochemistry analysis; format: functional, organism-based; settings: time 14.0 day
# [33] = target: Programmed cell death protein 1 (Homo sapiens, UniProt Q15116); experiment: Inhibition of human recombinant PD-1 by HTRF analysis
# 4T1 [34] = experiment: Antitumor activity against mouse 4T1 cells implanted in BALB/c mouse assessed as increase in percentage of CD3+ CD4+ cells in spleen at 15 mg/kg, ip qd administered for 14 days by flow cytometry analysis (reference value: 6.72%); format: functional; settings: time 14 day
# 4T1 [35] = experiment: Antitumor activity against mouse 4T1 cells implanted in BALB/c mouse assessed as increase in percentage of CD3+ CD8+ cells in spleen at 15 mg/kg, ip qd administered for 14 days by flow cytometry analysis (reference value: 3.34%); format: functional; settings: time 14 day
# 4T1 [36] = experiment: Antitumor activity against mouse 4T1 cells implanted in BALB/c mouse assessed as increase in percentage of CD3+ CD4+ cells in tumor at 15 mg/kg, ip qd administered for 14 days by flow cytometry analysis (reference value: 0.32%); format: functional; settings: time 14 day
# 4T1 [37] = experiment: Antitumor activity against mouse 4T1 cells implanted in BALB/c mouse assessed as increase in percentage of CD3+ CD8+ cells in tumor at 15 mg/kg, ip qd administered for 14 days by flow cytometry analysis (reference value: 0.64%); format: functional; settings: time 14 day
# Chain of Programmed cell death protein 1/Programmed cell death 1 ligand 1 (Q15116 whole entry): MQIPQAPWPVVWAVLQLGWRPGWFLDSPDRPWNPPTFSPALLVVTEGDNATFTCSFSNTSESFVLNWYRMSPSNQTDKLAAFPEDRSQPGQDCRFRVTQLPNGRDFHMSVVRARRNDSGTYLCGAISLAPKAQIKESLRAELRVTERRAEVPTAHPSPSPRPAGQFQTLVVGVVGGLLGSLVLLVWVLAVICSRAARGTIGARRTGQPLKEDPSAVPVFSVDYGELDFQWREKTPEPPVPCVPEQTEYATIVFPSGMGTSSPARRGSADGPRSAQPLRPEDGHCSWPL
# Chain of Programmed cell death protein 1/Programmed cell death 1 ligand 1 (Q9NZQ7 whole entry): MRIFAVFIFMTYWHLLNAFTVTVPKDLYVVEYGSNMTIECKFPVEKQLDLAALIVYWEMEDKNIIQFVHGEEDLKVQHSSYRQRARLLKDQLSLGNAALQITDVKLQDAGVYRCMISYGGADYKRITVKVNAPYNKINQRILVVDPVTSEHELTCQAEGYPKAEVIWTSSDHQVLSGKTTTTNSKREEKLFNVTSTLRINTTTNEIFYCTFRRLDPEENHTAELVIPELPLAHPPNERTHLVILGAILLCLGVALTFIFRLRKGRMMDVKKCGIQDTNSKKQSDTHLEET
# Chain of Programmed cell death protein 1 (Q15116 whole entry): as the sequence (Q15116 whole entry) above
# Chain of Programmed cell death 1 ligand 1 (Q9EP73 whole entry): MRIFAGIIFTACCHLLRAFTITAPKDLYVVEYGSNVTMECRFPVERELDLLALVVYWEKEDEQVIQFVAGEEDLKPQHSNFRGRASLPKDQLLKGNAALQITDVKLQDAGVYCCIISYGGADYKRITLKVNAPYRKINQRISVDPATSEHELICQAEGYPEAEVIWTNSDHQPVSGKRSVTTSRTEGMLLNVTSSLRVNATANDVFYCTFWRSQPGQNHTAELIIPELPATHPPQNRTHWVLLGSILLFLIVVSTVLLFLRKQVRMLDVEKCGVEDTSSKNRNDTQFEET
compound,measurement,setting,value
CC(C)OC(=O)CN1CCc2nc(OCc3cccc(-c4ccccc4F)c3Cl)ccc2C1,IC50,[1],436 nM
O=C(O)CN1CCc2nc(OCc3cccc(-c4ccccc4F)c3Cl)ccc2C1,AUC(0-inf),[2],1820 ng·h/mL
same,AUC(0-inf),[3],10500 ng·h/mL
same,MRT last at 24 h,[4],3.7 h
same,Kd,[5],392000 nM
same,IC50,MDA-MB-231 [6],15400 nM
same,IC50,4T1 [7],77500 nM
same,IC50,Jurkat,53900 nM
same,Activity,MDA-MB-231 [8],Active
same,Activity,PBMC,Active
same,Activity,MDA-MB-231 [9],Active
same,half-life,[10],3.51 h
same,half-life,[11],4.95 h
same,Tmax,[12],0.25 h
same,Cmax,[13],1950 ng/mL
same,AUC(0-t) at 24 h,[14],1800 ng·h/mL
same,AUC(0-t) at 24 h,[15],10200 ng·h/mL
same,MRT last at 24 h,[16],6.05 h
same,MRT inf,[17],3.86 h
same,MRT inf,[18],7.35 h
same,clearance,[19],9.55 mL/min/kg
same,bioavailability,[20],58%
same,Activity,[21],Non-Toxic
same,inhibition in vivo at 5 mg/kg,4T1 [22],49%
same,inhibition in vivo at 10 mg/kg,4T1 [23],66%
same,Activity,[24],Non-Toxic
same,Activity,[25],Non-Toxic
same,Activity,[26],Non-Toxic
same,Activity,[27],Non-Toxic
same,Activity,[28],Non-Toxic
same,Activity,[29],Non-Toxic
same,Activity,[30],Non-Toxic
same,Activity,[31],Toxic
same,Activity,4T1 [32],Active
CCOC(=O)CCN1CCc2nc(OCc3cccc(-c4ccccc4F)c3Cl)ccc2C1,IC50,[1],241 nM
Cc1c(COc2ccc3c(n2)CCN(CCO)C3)cccc1-c1ccccc1Cl,IC50,[1],216 nM
OCCN1CCc2nc(OCc3cccc(-c4ccccc4Cl)c3F)ccc2C1,IC50,[1],101 nM
CCOC(=O)C(C)N1CCc2nc(OCc3cccc(-c4ccccc4F)c3Cl)ccc2C1 (centres undefined),IC50,[1],592 nM
Cc1ccccc1-c1cccc(COc2ccc3c(n2)CCN(CCO)C3)c1C,IC50,[1],406 nM
OCCN1CCc2nc(OCc3cccc(-c4ccccc4F)c3Cl)ccc2C1,IC50,[1],19.8 nM
NC(=O)CN1CCc2nc(OCc3cccc(-c4ccccc4F)c3Cl)ccc2C1,IC50,[1],157 nM
O=C(Nc1cccc(-c2cccc(F)c2F)c1Cl)c1ccc2c(n1)CCN(CCO)C2,IC50,[1],20.1 nM
CC(C)Oc1cccc(-c2cccc(NC(=O)c3ccc4c(n3)CCN(CCO)C4)c2Cl)c1F,IC50,[1],83.5 nM
CCOC(=O)CN1CCc2nc(C(=O)Nc3cccc(-c4cccc(F)c4F)c3Cl)ccc2C1,IC50,[1],33800 nM
Cc1c(COc2ccc3c(n2)CCN(CCO)C3)cccc1-c1ccccc1,IC50,[1],227 nM
CC(C(=O)O)N1CCc2nc(OCc3cccc(-c4ccccc4F)c3Cl)ccc2C1 (centres undefined),IC50,[1],31.3 nM
Cc1c(Nc2nccc3cc(CN4CC[C@@H](O)C4)cnc23)cccc1-c1cccc(-c2nc3ccc(CN4CC[C@@H](C(=O)O)C4)c(C#N)c3o2)c1C,IC50,[33],3.1 nM
CCOC(=O)CN1CCc2nc(C(=O)Nc3cccc(-c4cccc(OC(C)C)c4F)c3Cl)ccc2C1,IC50,[1],> 1000 nM
Cc1c(COc2ccc3c(n2)CCN(CCO)C3)cccc1-c1ccccc1F,IC50,[1],170 nM
CCOC(=O)CN1CCc2nc(C(=O)Nc3cccc(-c4cccc(C#N)c4F)c3Cl)ccc2C1,IC50,[1],> 1000 nM
O=C(Nc1cccc(-c2ccccc2F)c1Cl)c1ccc2c(n1)CCN(CCO)C2,IC50,[1],21.6 nM
N#Cc1cccc(-c2cccc(NC(=O)c3ccc4c(n3)CCN(CCO)C4)c2Cl)c1F,IC50,[1],58.8 nM
COc1nc(OCc2cccc(-c3ccccc3)c2C)ccc1CNCCNC(C)=O,IC50,MDA-MB-231 [6],19300 nM
same,IC50,4T1 [7],5200 nM
same,IC50,Jurkat,4330 nM
same,Activity,4T1 [34],5.4%
same,Activity,4T1 [35],2.52%
same,Activity,4T1 [36],0.58%
same,Activity,4T1 [37],1.24%
CCOC(=O)CN1CCc2nc(C(=O)Nc3cccc(-c4cccc(Cl)c4F)c3Cl)ccc2C1,IC50,[1],> 1000 nM
OCCN1CCc2nc(OCc3cccc(-c4ccccc4Cl)c3Cl)ccc2C1,IC50,[1],95.1 nM
OCCN1CCc2nc(OCc3cccc(-c4ccccc4F)c3F)ccc2C1,IC50,[1],105 nM
O=C(Nc1cccc(-c2cccc(Cl)c2F)c1Cl)c1ccc2c(n1)CCN(CCO)C2,IC50,[1],24.2 nM
COC(=O)CN1CCc2nc(OCc3cccc(-c4ccccc4F)c3Cl)ccc2C1,IC50,[1],369 nM
